Legend:
[1] = Growth inhibition of human NCI60 cells; format: functional
NCI/ADR-RES = assay: Growth inhibition of human NCI/ADR-RES cells; format: functional

Work on `C=C1C[C@@H](O)[C@@H](Br)C(C)(C)[C@@]12C=C[C@@](O)(C(Br)Br)CC2` [MAILIOHYDRIN] yielded a GI50 [1] of 10 µM and a GI50 (NCI/ADR-RES) of 0.01 µM.

Source: ChEMBL document CHEMBL1150865, “Ma'iliohydrin, a cytotoxic chamigrene dibromohydrin from a Philippine Laurencia species” (2001)
